Where “and” joins values, the source holds several entries; their conditions need not be identical. Equal values may be shown once. Where a name gives a salt, the structure may show the parent alone.
Key:
[1] = test system: Urease; assay: Urease activity of urea amended soil, 38° C., 24 hrs; assay type: biochemical
Method: Urease activity: Five grams (5 g) oven-dry soil is treated with 5 ml of aqueous urea solution (1000 ug/g soil), with or without the test compound, and incubated in 65 ml screw-capped glass bottles at 38° C. for 24 hrs. Three replicates of each treatment are established. Phenylphosphorodiamide (PPD) is used as a urease inhibitor for comparison with Maduramicin monoammonium salt. Urea remaining is determined after extracting the soil for 60 minutes (with shaking) with 50 ml of 2M KCl containing 0.5 ug/ml of phenylmercuric acetate and filtering the soil suspension. Urea in the extract is determined colorimetrically (Douglas & Bremner, 1970). The percentage inhibition is calculated from (A-B)/(C-B) X 100-% inhibition; where A=the amount of urea found after incubation with the compound, B=the amount of urea found in the non-treated soil, and C=the amount of urea added.

[2] = test system: corn (Dekalb T2000, B73×LH 38); assay: Field evaluation: corn ear leaf tissue nitrogen, silt loam plots; assay type: in vivo; settings: inhibitor 0.11 kg/ha, ear leaf at silking
[3] = test system: corn (Pioneer 3352); assay: Field evaluation: yield of corn, sandy loam plots; assay type: in vivo; settings: for AVERAGE YIELD 4-REPLICATES: sandy loam
Excerpt: (§1) Field Evaluation: Field evaluations are based on the N content of corn leaf tissue and grain yield utilizing two soil types. Replicate (4X) field plots are established at two different locations, one having (I) silt loam soil and one (II) with sandy loam soil. These soils had been previously cropped to non-fertilized corn to reduce the level of residual N. Maduramicin monoammonium salt is applied (0.25, 0.125, 0.07 ppm) with NH3 (84 or 168 kg N/ha) through a "downstream" by an injection system into silt loam plots. Nitrapyrin (0.25 ppm=0.56 kg a.i./ha), nitrogen checks, benzyl alcohol (1.16L/ha) (BA) and a O nitrogen check are included for comparison. Individual replicate plot sizes are 3.04M×22.8M (4, 76-cm corn rows×22.8M long) Anhydrous ammonia are injected on 76-cm centers.
Plots are then planted with corn the day following treatment. Dekalb T2000 is planted 10 May on silt loam plots and Pioneer 3352 is planted 11 May in sandy loam plots.
(§2) Corn ear leaf tissues collected at silking on silt loam plots or 60 days post silking (on silt loam and sandy loam plots) are collected from each plot and assayed for total N (AOAC procedures). Grain yields are determined by harvesting the two center rows×15.2 m of each plot.

[4] = test system: Nitrosomonos; assay: Nitrification of ammonium amended field soil incubated at 38° C. (ammonium recovery, nitrate); settings: soil 38° C.; for Ammonium Recovery, reported as nitrogen / Nitrate, reported as nitrogen: 0.50 ppm, 200 ppm N
Method: (§3) Determination of Nitrification Inhibition of Soil amended with 200 ppm of nitrogen as ammonium sulfate and 0.5 ppm of Nitrapyrin or 0.5 ppm of Maduramicin, monoammonium salt.
(§4) Soil samples prepared as described in Example 1 above are incubated at 38° C. for 20 weeks. Samples are taken at intervals during the 20 week period, extracted with 2M KCl (10:1 v/w), and assayed for ammonium nitrite and nitrate by standard steam distillation methods.

[5] = test system: corn (Dekalb T2000, B73×LH 38); assay: Field evaluation: corn ear leaf tissue nitrogen, silt loam plots; assay type: in vivo; settings: for Corn Leaf Tissue Analysis (total N): ear leaf at silking
Excerpt: as §1
Urea, treated or non-treated with Maduramicin monoammonium salt is broadcast on the surface of sandy loam plots. Plots are then planted with corn the day following treatment. Dekalb T2000 is planted 10 May on silt loam plots and Pioneer 3352 is planted 11 May in sandy loam plots.
as §2

[6] = test system: Nitrabacter; assay: Nitrite in ammonium amended field soil incubated at 38° C.; settings: soil 38° C.; for Nitrite, reported as nitrogen: 0.50 ppm, 200 ppm N
Method: as §3, §4

[7] = test system: Nitrobacter spp.; assay: Nitrite nitrogen in ammonium amended soil incubated at 25° C.; settings: soil 25° C., 200 ppm N
Method: Determination of nitrite nitrogen and nitrate nitrogen in soil prepared in Example 1 above, which is amended with 200 ppm of nitrogen as aqueous ammonium sulfate, […], is determined using the nitrite and nitrate analysis of the American Organization of Analytical Chemists (AOAC pp. 653-655).

CO[C@@H]1[C@@H](OC)[C@H](C)[C@@](O)(CC(=O)O)O[C@H]1[C@H](C)[C@H]1O[C@@]2(CC[C@@](C)([C@H]3CC[C@@](C)([C@@H]4O[C@@H]([C@H]5O[C@](C)(O)[C@H](C)C[C@@H]5C)C[C@@H]4O[C@@H]4C[C@H](OC)[C@@H](OC)[C@H](C)O4)O3)O2)C[C@H](O)[C@H]1C [Maduramicin monoammonium salt, Maduramicin]
% INHIBITION (urease) ([1]; (A-B)/(C-B) X 100, urea 1000 ug/g soil): 16% | AVERAGE amount of urea remaining ([1]; average of 3 replicates, urea 1000 ug/g soil): 483 µg/g | AMOUNT REMAINING (urea) ([1]; single replicates, urea 1000 ug/g soil): 492 µg/g and 477 µg/g | Corn Leaf Tissue Analysis (total N) ([2]; NH3 84 kg N/ha): 257 10^2 ug/g | Corn Leaf Tissue Analysis (total N) ([2]; NH3 168 kg N/ha): 268 10^2 ug/g | Yield at the sandy loam location, in words ([3]; 0.56 kg a.i./hectare, both rates of NH3 and the lower rate of urea): significantly higher | AVERAGE YIELD 4-REPLICATES ([3]; N 84 kg/ha as NH3, chemical 0.11 kg/ha): 155.7 HECTOLITERS/HECTARE | AVERAGE YIELD 4-REPLICATES ([3]; N 84 kg/ha as NH3, chemical 0.28 kg/ha): 159.2 HECTOLITERS/HECTARE | AVERAGE YIELD 4-REPLICATES ([3]; N 84 kg/ha as NH3, chemical 0.56 kg/ha): 165.3 HECTOLITERS/HECTARE | AVERAGE YIELD 4-REPLICATES ([3]; N 168 kg/ha as NH3, chemical 0.11 kg/ha): 163.6 HECTOLITERS/HECTARE | AVERAGE YIELD 4-REPLICATES ([3]; N 168 kg/ha as NH3, chemical 0.28 kg/ha): 174.9 HECTOLITERS/HECTARE | AVERAGE YIELD 4-REPLICATES ([3]; N 168 kg/ha as NH3, chemical 0.56 kg/ha): 176.6 HECTOLITERS/HECTARE | Activity against Nitrosomonos, in words ([4]; 0.5 ppm): good activity | Nitrification inhibition compared with nitrapyrin, in words ([4]; 0.5 ppm, 20 weeks): slightly better than that obtained with nitrapyrin | Ammonium Recovery, reported as nitrogen ([4]; week 0): 193 ppm | Nitrate, reported as nitrogen ([4]; week 0): 18 ppm | Ammonium Recovery, reported as nitrogen ([4]; week 1): 178 ppm | Nitrate, reported as nitrogen ([4]; week 1): 20 ppm | Ammonium Recovery, reported as nitrogen ([4]; week 2): 193 ppm | Nitrate, reported as nitrogen ([4]; week 2): 17 ppm | Ammonium Recovery, reported as nitrogen ([4]; week 4): 199 ppm | Nitrate, reported as nitrogen ([4]; week 4): 9 ppm | Ammonium Recovery, reported as nitrogen ([4]; week 7): 208 ppm | Nitrate, reported as nitrogen ([4]; week 7): 15 ppm | Ammonium Recovery, reported as nitrogen ([4]; week 9): 168 ppm | Nitrate, reported as nitrogen ([4]; week 9): 52 ppm | Ammonium Recovery, reported as nitrogen ([4]; week 12): 154 ppm | Nitrate, reported as nitrogen ([4]; week 12): 76 ppm | Ammonium Recovery, reported as nitrogen ([4]; week 16): 129 ppm | Nitrate, reported as nitrogen ([4]; week 16): 112 ppm | Ammonium Recovery, reported as nitrogen ([4]; week 20): 95 ppm | Nitrate, reported as nitrogen ([4]; week 20): 111 ppm | Corn Leaf Tissue Analysis (total N) ([5]; inhibitor 0.28 kg/ha, NH3 84 kg N/ha): 256 10^2 ug/g | Corn Leaf Tissue Analysis (total N) ([5]; inhibitor 0.28 kg/ha, NH3 168 kg N/ha): 275 10^2 ug/g | Corn Leaf Tissue Analysis (total N) ([5]; inhibitor 0.56 kg/ha, NH3 84 kg N/ha): 258 10^2 ug/g | Corn Leaf Tissue Analysis (total N) ([5]; inhibitor 0.56 kg/ha, NH3 168 kg N/ha): 281 10^2 ug/g | More nitrogen in leaf tissue than control plots with similar nitrogen ([5]; silt loam plots): 15-25% | Tissue N compared with nitrapyrin-treated plants, in words ([5]; three rates, silt loam plots): slightly higher than nitrapyrin-treated plants | Activity against Nitrabacter, in words ([6]; 0.5 ppm): no activity | Nitrite, reported as nitrogen ([6]; week 0): 9 ppm | Nitrite, reported as nitrogen ([6]; week 1): 8 ppm | Nitrite, reported as nitrogen ([6]; week 2): 4 ppm | Nitrite, reported as nitrogen ([6]; week 4): 3 ppm | Nitrite, reported as nitrogen ([6]; week 7): -5 ppm | Nitrite, reported as nitrogen ([6]; week 9): 9 ppm | Nitrite, reported as nitrogen ([6]; week 12): 6 ppm | Nitrite, reported as nitrogen ([6]; week 16): 19 ppm | Nitrite, reported as nitrogen ([6]; week 20): 37 ppm | Concentration of nitrite nitrogen ([7]; 0.10 ppm, week 0): 6 ppm | Concentration of nitrite nitrogen ([7]; 0.10 ppm, week 1): 17 ppm | Concentration of nitrite nitrogen ([7]; 0.10 ppm, week 2): 2 ppm | Concentration of nitrite nitrogen ([7]; 0.10 ppm, week 4): 3 ppm | Concentration of nitrite nitrogen ([7]; 0.10 ppm, week 7): 12 ppm | Concentration of nitrite nitrogen ([7]; 0.10 ppm, week 9): 49 ppm | Concentration of nitrite nitrogen ([7]; 0.10 ppm, week 12): 9 ppm | Concentration of nitrite nitrogen ([7]; 0.10 ppm, week 16): 14 ppm | Concentration of nitrite nitrogen ([7]; 0.10 ppm, week 20): 56 ppm | Concentration of nitrite nitrogen ([7]; 0.25 ppm, week 0): 7 ppm | Concentration of nitrite nitrogen ([7]; 0.25 ppm, week 1): 2 ppm | Concentration of nitrite nitrogen ([7]; 0.25 ppm, week 2): 7 ppm | Concentration of nitrite nitrogen ([7]; 0.25 ppm, week 4): 0 ppm | Concentration of nitrite nitrogen ([7]; 0.25 ppm, week 7): -5 ppm | Concentration of nitrite nitrogen ([7]; 0.25 ppm, week 9): 12 ppm | Concentration of nitrite nitrogen ([7]; 0.25 ppm, week 12): 0 ppm | Concentration of nitrite nitrogen ([7]; 0.25 ppm, week 16): -2 ppm | Concentration of nitrite nitrogen ([7]; 0.25 ppm, week 20): 33 ppm | Concentration of nitrite nitrogen ([7]; 0.50 ppm, week 0): 8 ppm | Concentration of nitrite nitrogen ([7]; 0.50 ppm, week 1): 10 ppm | Concentration of nitrite nitrogen ([7]; 0.50 ppm, week 2): 4 ppm | Concentration of nitrite nitrogen ([7]; 0.50 ppm, week 4): 4 ppm | Concentration of nitrite nitrogen ([7]; 0.50 ppm, week 7): -8 ppm | Concentration of nitrite nitrogen ([7]; 0.50 ppm, week 9): -4 ppm | Concentration of nitrite nitrogen ([7]; 0.50 ppm, week 12): 4 ppm | Concentration of nitrite nitrogen ([7]; 0.50 ppm, week 16): -13 ppm | Concentration of nitrite nitrogen ([7]; 0.50 ppm, week 20): 14 ppm

Source: US4746349A, “Method and compositions for suppressing the nitrification of ammonium in plant growth medium” (American Cyanamid Company, priority 1986, dated 1988)
